Laboratory results reported in article PMC4980415 (Psychopharmacology, 2016).

How the values were obtained:
in vivo = conditions: male, Sprague-Dawley, rat, oral
Description: Standard methods of tissue extraction were used. […] Brain homogenate or plasma was then extracted with two volumes of acetonitrile and clarified by centrifugation at 12,000g for 20 min. […] Brain and plasma concentration and ratio (brain/plasma) were calculated for each compound.

[1] = tested on: conditioned avoidance responding in male Wistar rats; assay: Conditioned avoidance response (CAR); assay type: in vivo, rat
Description: The drug was administered, per os (po), by gavage to rats in a volume of 2 ml/kg body weight. Oral dosing solutions were prepared fresh daily. […] The pH of the dosing solution was adjusted to ~pH 5.5 by dropwise addition of 0.1 N NaOH in saline and volume adjusted by addition of saline in preparation for intraperitoneal (ip) dosing. […] Control treatments were always the vehicle solutions of the corresponding drugs.
Avoidance behavior, escape behavior, escape failures, and inter-trial crosses were recorded, as described here: (1) avoidance (response to CS within 10 s); (2) escape (response to CS + UCS); and (3) escape failure (if the rat was unable to respond to the shock by moving into the opposite compartment within 50 s, the trial was terminated). The inter-trial interval (end of trial to start of new trial) varied randomly between 20 and 40 s. Rats were trained for five consecutive days and adapted to the shuttle box 5 min before each training session. Training sessions consisted of about 20 trials, randomly distributed over 15 min. Only rats that performed at least 90 % avoidance on the last day of training were included in the experiments. All subsequent test sessions were preceded by a pre-test to verify continued performance in the paradigm. Pre-tests and test sessions consisted of approximately ten trials, each randomly distributed over a 7.5-min period. […] Experimental days were always separated by at least two non-experimental days. Experimental tests were separated by at least 2 days to insure drug washout.
Results from the conditioned avoidance responding (CAR) protocol were analyzed using non-parametric procedures.

Row | concentration at 1 h (in vivo; brain) | concentration at 1 h (in vivo; plasma) | concentration at 1 h (in vivo; plasma, plasma concentration, risperidone 2 mg/kg po plus vehicle, 1 h, ± SD, n = 3) | Compound | effect on percent avoidances ([1]; 0.2 mg/kg i.p., sub-threshold dose) | effect on avoidance behaviors ([1]; 0.8 mg/kg i.p., effective dose)
1 | 15 ± 5 ng/mL | 197 ± 91 ng/mL | 162 ± 70 ng/mL | Cc1nc2n(c(=O)c1CCN1CCC(c3noc4cc(F)ccc34)CC1)CCCC2O (centres unmarked) [Paliperidone, paliperidone] |  | 
2 |  |  |  | Cc1nc2n(c(=O)c1CCN1CCC(c3noc4cc(F)ccc34)CC1)CCCC2 [Risperidone, reference compound] | no effect | significant inhibition
